Assay results: US11078197B2, “5-membered and bicyclic heterocyclic amides as inhibitors of rock” (BRISTOL-MYERS SQUIBB COMPANY, priority 2017, dated 2021)

Target: ROCK2 (Homo sapiens (Human), UniProt O75116)
Assay: ROCK2 assay (peptide phosphorylation, LABCHIP 3000 Reader)
Type: biochemical
Conditions: 5 μM ATP, 1.5 μM peptide substrate, dose-response
Description: After incubation, the reaction was terminated by the addition of EDTA and the phosphorylated and non-phosphorylated peptides separated using a LABCHIP®3000 Reader (Caliper Life Sciences). […] Compounds were tested in dose-response format, and the inhibition of kinase activity was calculated at each concentration of compound. […] Representative Examples were tested in the ROCK2 assay described above and found having ROCK2 inhibitory activity.

Chain of ROCK2 (O75116 whole entry, species assumed): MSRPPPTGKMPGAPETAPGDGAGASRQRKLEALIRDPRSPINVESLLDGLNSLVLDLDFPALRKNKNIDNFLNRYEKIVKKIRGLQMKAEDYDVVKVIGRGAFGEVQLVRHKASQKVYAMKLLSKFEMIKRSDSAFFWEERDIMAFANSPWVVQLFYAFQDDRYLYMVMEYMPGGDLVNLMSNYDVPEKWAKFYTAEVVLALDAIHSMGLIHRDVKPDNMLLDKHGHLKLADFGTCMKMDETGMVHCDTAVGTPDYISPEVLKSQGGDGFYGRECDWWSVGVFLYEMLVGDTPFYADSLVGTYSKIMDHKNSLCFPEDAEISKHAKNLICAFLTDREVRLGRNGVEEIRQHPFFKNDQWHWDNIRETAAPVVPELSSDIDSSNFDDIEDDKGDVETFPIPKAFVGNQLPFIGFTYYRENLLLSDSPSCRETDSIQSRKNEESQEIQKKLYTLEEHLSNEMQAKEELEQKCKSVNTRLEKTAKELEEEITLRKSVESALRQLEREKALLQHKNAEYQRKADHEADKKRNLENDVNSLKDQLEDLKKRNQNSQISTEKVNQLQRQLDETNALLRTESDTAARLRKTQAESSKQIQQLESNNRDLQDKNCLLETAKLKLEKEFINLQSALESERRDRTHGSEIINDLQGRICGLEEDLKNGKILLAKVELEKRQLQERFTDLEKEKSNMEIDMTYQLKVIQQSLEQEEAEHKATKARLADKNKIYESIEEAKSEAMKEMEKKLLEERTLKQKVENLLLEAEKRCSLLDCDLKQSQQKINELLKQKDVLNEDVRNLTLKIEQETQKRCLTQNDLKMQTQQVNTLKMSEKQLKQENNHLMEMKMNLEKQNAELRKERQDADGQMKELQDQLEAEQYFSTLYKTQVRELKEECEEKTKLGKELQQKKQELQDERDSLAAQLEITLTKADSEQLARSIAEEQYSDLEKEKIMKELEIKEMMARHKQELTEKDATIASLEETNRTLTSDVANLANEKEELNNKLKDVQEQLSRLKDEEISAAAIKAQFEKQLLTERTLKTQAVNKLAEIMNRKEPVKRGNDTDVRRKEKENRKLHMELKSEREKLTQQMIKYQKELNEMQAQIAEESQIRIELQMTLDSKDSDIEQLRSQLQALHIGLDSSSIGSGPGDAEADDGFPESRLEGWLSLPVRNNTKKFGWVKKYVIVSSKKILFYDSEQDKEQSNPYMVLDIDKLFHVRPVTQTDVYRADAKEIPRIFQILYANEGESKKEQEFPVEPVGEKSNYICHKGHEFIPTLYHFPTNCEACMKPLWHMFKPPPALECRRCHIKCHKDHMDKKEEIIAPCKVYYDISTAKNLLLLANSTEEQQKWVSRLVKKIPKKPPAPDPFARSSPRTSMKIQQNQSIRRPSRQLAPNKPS

Row | IC50 [nM] | Structure (SMILES)
1 | 6.1 | NC(=O)c1sc(C2CC2)nc1O[C@H]1C[C@@]2(C[C@H](NC(=O)c3nc(C(F)(F)F)n4cc(-c5ccc(F)nc5)ccc34)C2)C1 (stereo partly drawn) [Example 63, 2-cyclopropyl-4-{[(aR)-6-[6-(6-fluoropyridin-3-yl)-3-(trifluoromethyl)imidazo[1,5-a]pyridine-1-amido]spiro[3.3]heptan-2-yl]oxy}-1,3-thiazole-5-carboxamide]
2 | 450 | Cc1c(C(=O)N[C@H]2C[C@]3(C2)C[C@H](Oc2nn(-c4ccccc4)cc2C(N)=O)C3)cnn1-c1ccc(Cl)cc1 (stereo partly drawn) [Example 49, 1-phenyl-3-{[(aR)-6-[1-(4-chlorophenyl)-5-methyl-1H-pyrazole-4-amido]spiro[3.3]heptan-2-yl]oxy}-1H-pyrazole-4-carboxainide]
3 | 142 | Cc1c(C(=O)N[C@H]2C[C@]3(C2)C[C@H](Oc2nc(C4CC4)sc2C(N)=O)C3)cnn1-c1ccc(F)cc1F (stereo partly drawn) [Example 67, 2-cyclopropyl-4-{[(aR)-6-[1-(2,4-difluorophenyl)-5-methyl-1H-pyrazole-4-amido]spiro[3.3]heptan-2-yl]oxy}-1,3-thiazole-5-carboxamide]
4 | 13.4 | CC(C)(O)COc1ccc2c(C(=O)N[C@H]3C[C@]4(C3)C[C@H](Oc3nc(-c5ccccc5)sc3C(N)=O)C4)cnn2c1C1CC1 (stereo partly drawn) [Example 18, 4-({(aR)-6-[7-cyclopropyl-6-(2-hydroxy-2-methylpropoxy)pyrazolo [1,5-a]pyridine-3-amido]spiro[3.3]heptan-2-yl}oxy)-2-phenyl-1,3-thiazole-5-carboxamide]
5 | 126 | Cc1sc2cc(C(N)=O)c(O[C@H]3C[C@@]4(C[C@H](NC(=O)c5cnc6ccc(F)cc6c5)C4)C3)nc2c1C (stereo partly drawn) [Example 96, 6-fluoro-N-[(aR)-6-({6-carbamoyl-2,3-dimethylthieno[3,2-b]pyridin-5-yl}oxy)spiro[3.3]heptan-2-yl]quinoline-3-carboxamide]
6 | 191 | N#Cc1cc(C(=O)N[C@H]2C[C@]3(C2)C[C@H](Oc2nc4c(cc2C(N)=O)COCC4)C3)ccc1Br (stereo partly drawn) [Example 92, 2-{[(aR)-6-(4-bromo-3-cyanobenzamido)spiro[3.3]heptan-2-yl]oxy}-5H,7H,8H-pyrano[4,3-b]pyridine-3-carboxamide]
7 | 25.4 | CC(C)(O)COc1ccc2c(C(=O)N[C@H]3C[C@]4(C3)C[C@H](Oc3[nH]ncc3C(N)=O)C4)cnn2c1C1CC1 (stereo partly drawn) [Example 26, 5-({(aR)-6-[7-cyclopropyl-6-(2-hydroxy-2-methylpropoxy)pyrazolo [1,5-a]pyridine-3-amido]spiro[3.3]heptan-2-yl}oxy)-1H-pyrazole-4-carboxamide]
8 | 634 | NC(=O)c1cc2sccc2nc1OC1CC2(CC(NC(=O)C3CCC(F)(F)CC3)C2)C1 (centres unmarked) [Example 77, 5-{[6-(4,4-difluorocyclohexane amido)spiro[3.3]heptan-2-yl]oxy}thieno[3,2-b]pyridine-6-carboxamide]
9 | 117 | NC(=O)c1c(O[C@H]2C[C@@]3(C[C@H](NC(=O)c4cnn5cc(OCC(F)F)ccc45)C3)C2)nn2ccccc12 (some centres unmarked) [Example 122, 2-{[(4s)-6-[6-(2,2-difluoroethoxy)pyrazolo[1,5-a]pyridine-3-amido]spiro[3.3]heptan-2-yl]oxy}pyrazolo[1,5-a]pyridine-3-carboxamide]
10 | 25.7 | Cc1csc2cc(C(N)=O)c(O[C@H]3C[C@@]4(C[C@H](NC(=O)c5cccc(C#N)c5)C4)C3)nc12 (stereo partly drawn) [Example 98, 3-methyl-5-{[(aR)-6-(3-cyanobenzamido)spiro[3.3]heptan-2-yl]oxy}thieno[3,2-b]pyridine-6-carboxamide]
11 | 351 | Cc1c(C(=O)N[C@H]2C[C@]3(C2)C[C@H](Oc2nn4ccccc4c2C(N)=O)C3)cnn1-c1ccc(Cl)cc1 (some centres unmarked) [Example 119, 1-(4-chlorophenyl)-5-methyl-N-[(4s)-6-({3-carbamoylpyrazolo[1,5-a]pyridin-2-yl}oxy)spiro[3.3]heptan-2-yl]-1H-pyrazole-4-carboxamide]
12 | 225 | Cc1c(C(=O)N[C@H]2C[C@]3(C2)C[C@H](Oc2nn(C4CC4)cc2C(N)=O)C3)cnn1-c1ccc(F)cc1F (stereo partly drawn) [Example 66, 1-cyclopropyl-3-{[(aR)-6-[1-(2,4-difluorophenyl)-5-methyl-1H-pyrazole-4-amido]spiro[3.3]heptan-2-yl]oxy}-1H-pyrazole-4-carboxamide]
13 | 1170 | NC(=O)c1c(O[C@H]2C[C@@]3(C[C@H](NC(=O)c4cnn5cc(OCC(F)F)ccc45)C3)C2)nn2cc(C(F)(F)F)ccc12 (some centres unmarked) [Example 131, 2-{[(4s)-6-[6-(2,2-difluoroethoxy)pyrazolo[1,5-a]pyridine-3-amido]spiro[3.3]heptan-2-yl]oxy}-6-(trifluoromethyl)pyrazolo[1,5-a]pyridine-3-carboxamide]
14 | 205 | COc1nc(O[C@H]2CC3(C[C@H](NC(=O)c4cnn(-c5ccc(C#N)cc5)c4C)C3)C2)c(C(N)=O)s1 (stereo partly drawn) [Example 112, 4-(((2S,4s,6)-6-(1-(4-cyanophenyl)-5-methyl-1H-pyrazole-4-carboxamido)spiro[3.3]heptan-2-yl)oxy)-2-methoxythiazole-5-carboxamide]
15 | 55.5 | NC(=O)c1sc(C2CC2)nc1O[C@H]1C[C@@]2(C[C@H](NC(=O)c3cnn4cc(OCC(O)(C(F)(F)F)C(F)(F)F)ccc34)C2)C1 (stereo partly drawn) [Example 61, 2-cyclopropyl-4-{[(aR)-6-{6-[3,3,3-trifluoro-2-hydroxy-2-(trifluoromethyl)propoxy]pyrazolo[1,5-a]pyridine-3-amido}spiro[3.3]heptan-2-yl]oxy}-1,3-thiazole-5-carboxamide]
16 | 2340 | NC(=O)c1cc2sccc2nc1OC1CC2(CC(NC(=O)C3CC(=O)N(Cc4ccc(Cl)cc4)C3)C2)C1 (single isomer, unassigned) [Example 80, N-[6-({6-carbamoylthieno[3,2-b]pyridin-5-yl}oxy)spiro[3.3]heptan-2-yl]-1-[(4-chlorophenyl)methyl]-5-oxopyrrolidine-3-carboxamide]
17 | 4.3 | Cn1ncc2cc(C(N)=O)c(O[C@H]3C[C@@]4(C[C@H](NC(=O)c5nnc(-c6cccc(S(C)(=O)=O)c6)s5)C4)C3)nc21 (some centres unmarked) [Example 156, 5-(3-methanesulfonylphenyl)-N-[(4s)-6-({5-carbamoyl-1-methyl-1H-pyrazolo[3,4-b]pyridin-6-yl}oxy)spiro[3.3]heptan-2-yl]-1,3,4-thiadiazole-2-carboxamide]
18 | 426 | Cc1c(C(=O)N[C@H]2C[C@]3(C2)C[C@H](Oc2nn(-c4ccccc4)cc2C(N)=O)C3)cnn1-c1ccc(C#N)cc1 (stereo partly drawn) [Example 38, 3-({(aR)-6-[1-(4-cyanophenyl)-5-methyl-1H-pyrazole-4-amido]spiro[3.3]heptan-2-yl}oxy)-1-phenyl-1H-pyrazole-4-carboxamide]
19 | 33.9 | NC(=O)c1cn(C(F)F)nc1O[C@H]1C[C@@]2(C[C@H](NC(=O)c3cnn4cc(OCC(O)(C(F)(F)F)C(F)(F)F)ccc34)C2)C1 (stereo partly drawn) [Example 52, 1-(difluoromethyl)-3-{[(aR)-6-{6-[3,3,3-trifluoro-2-hydxoxy-2-(trifluoromethyl)propoxy]pyrazolo [1,5-a]pyridine-3-amido}spiro[3.3]heptan-2-yl]oxy}-1H-pyrazole-4-carboxamide]
20 | 22.2 | N#Cc1cccc(C(=O)NC2CC3(C2)CC(Oc2nc4ccsc4cc2C(N)=O)C3)c1 (centres unmarked) [Example 79, 5-{[6-(3-cyanobenzamido)spiro[3.3]heptan-2-yl]oxy}thieno[3,2-b]pyridine-6-carboxamide]

Row | Structure (SMILES) | IC50 [nM]
21 | CC(C)(O)COc1ccc2c(C(=O)N[C@H]3C[C@]4(C3)C[C@H](Oc3nn5c(-c6ccccc6)cccc5c3C(N)=O)C4)nn(C(F)F)c2c1 (some centres unmarked) [Example 134, 1-(difluoromethyl)-6-(2-hydroxy-2-methylpropoxy)-N-[(4s)-6-({3-carbamoyl-7-phenylpyrazolo[1,5-a]pyridin-2-yl}oxy)spiro[3.3]heptan-2-yl]-1H-indazole-3-carboxamide] | 143
22 | Cc1ccc2c(C(N)=O)c(O[C@H]3C[C@@]4(C[C@H](NC(=O)c5nn(C(F)F)c6cc(OCC(C)(C)O)ccc56)C4)C3)nn2c1 (some centres unmarked) [Example 126, 1-(difluoromethyl)-6-(2-hydroxy-2-methylpropoxy)-N-[(4s)-6-({3-carbamoyl-6-methylpyrazolo[1,5-a]pyridin-2-yl}oxy)spiro[3.3]heptan-2-yl]-1H-indazole-3-carboxamide] | 46.4
23 | CC(C)(O)COc1ccc2c(C(=O)N[C@H]3C[C@]4(C3)C[C@H](Oc3nn5ccc(-c6ccccc6)cc5c3C(N)=O)C4)nn(C(F)F)c2c1 (some centres unmarked) [Example 137, 1-(difluoromethyl)-6-(2-hydroxy-2-methylpropoxy)-N-[(4s)-6-({3-carbamoyl-5-phenylpyrazolo[1,5-a]pyridin-2-yl}oxy)spiro[3.3]heptan-2-yl]-1H-indazole-3-carboxamide] | 150
24 | CC(C)(O)COc1ccc2c(C(=O)NC3CC4(C3)CC(Oc3nn(CC5CCNCC5)cc3C(N)=O)C4)cnn2c1C1CC1 [Example 20, 3-({(aR)-6-[7-cyclopropyl-6-(2-hydroxy-2-methylpropoxy)pyrazolo [1,5-a]pyridine-3-amido]spiro[3.3]heptan-2-yl}oxy)-1-[(piperidin-4-yl)methyl]-1H-pyrazole-4-carboxamide] | 6.8
25 | CC(C)(O)COc1ccc2c(C(=O)N[C@H]3C[C@]4(C3)C[C@H](Oc3nn5cc(F)ccc5c3C(N)=O)C4)nn(C(F)F)c2c1 (some centres unmarked) [Example 128, 1-(difluoromethyl)-6-(2-hydroxy-2-methylpropoxy)-N-[(4s)-6-({3-carbamoyl-6-fluoropyrazolo[1,5-a]pyridin-2-yl}oxy)spiro[3.3]heptan-2-yl]-1H-indazole-3-carboxamide] | 83.2
26 | CC(C)(O)COc1ccc2c(C(=O)N[C@H]3C[C@]4(C3)C[C@H](Oc3nn5cc(-c6ccc(F)nc6)ccc5c3C(N)=O)C4)nn(C(F)F)c2c1 (some centres unmarked) [Example 135, 1-(difluoromethyl)-6-(2-hydroxy-2-methylpropoxy)-N-[(4s)-6-{[3-carbamoyl-6-(6-fluoropyridin-3-yl)pyrazolo[1,5-a]pyridin-2-yl]oxy}spiro[3.3]heptan-2-yl]-1H-indazole-3-carboxamide] | 390
